Data set [1] deals with Lysyl oxidase. The data set can be described thus: Lysyl oxidase activity assay with tritiated elastin substrate on culture media of chicken embryo chondrocytes. The data set is classed as biochemical. The procedure: The Lysyl oxidase activity was assayed with 300,000 dpm of labelled elastin on the Lysine, substrate of the enzyme (Shackelton and Hulmes Anal. Biochem. (1990) 185: 359-362). The determination of the presence of Lysyl oxidases in the cultures of chondrocytes is carried out according to the standard methods of immunodecoration of the supports onto which the bands separated from the proteins extracted from the corresponding culture media or from the cell lawns have been transferred.
Lysyl oxidase activities (inhibited by βAPN and assayed by the production of tritiated water) are secreted in the culture media. The specific activity recorded in the media is stronger on the 7th day of culture than on the 13th day. The extracellular matrix being richer in natural collagenic substrates of the Lysyl oxidase activity on the 13th day of culture, it would thus retain the enzyme in the cell lawn.

Data set [2] has as its system hypertrophic chondrocytes of chicken embryos. Briefly: Reversibility of effects on bridgings of collagen IX chains in cell lawn of hypertrophic chondrocytes (fluorography). The data set is classed as cell-based. The following applies: washings with PBS then medium without βAPN. How it is done:
Chondrocytes of the cranial section of the sternum were inoculated at a high concentration (5 million cells per P35 Petri dish) then subjected to 24 hours of radio-labelling with proline 14C on the 7th, 14th and […] day of culture (respectively day 7, day 14 and day 21).
βAPN was present (+) or absent. (−) for the entire duration of the culture, or present only during the first week ((+)).

In data set [3] the test system is chondrocytes, fibroblasts, keratinocytes. Briefly: Toxicity and multiplication of the cells in culture at the standard concentration. The data set is classed as cell-based. Particulars: 50 μg/ml. The procedure: βAPN (50 μg/ml) is added immediately upon inoculation, to the culture medium which is renewed every 2 days and applied to the cultures of chondrocytes as well as to those of fibroblasts then of keratinocytes during the formation of the reconstructed skin.

The subject of data set [4] is keratinocytes. Briefly: Keratinocytes cultured in monolayer: cell count and MTT viability test. The data set is classed as cell-based, human. The text has this:
(§1) The support of the reconstructed skin model is constituted by a dermal substrate (DS) with a base of collagen-glycosaminoglycan cross-linked by chitosan according to the technique published by Duplan-Perrat et al (J Invest Dermatol 2000 114:365). Fibroblasts are inoculated the inside of the DS in order to obtain an equivalent dermis. The reconstituted skin (RS) is obtained by inoculating the keratinocytes after 15 days (day 15) of culture in equivalent dermis. The dermal fibroblasts are obtained from explants of human prepuces after dermal-epidermal separation and cultured in monolayer in DMEM medium (Sigma) supplemented by 10% fœtal calf serum, 4 mM L-glutamine, EGF (Austral Biologic) at 10 ng/ml, penicillin at 100 UI/ml, gentamicin at 100 μg/ml and amphotericin B at 1 μg/ml. The keratinocytes are from a human skin biopsy sample after dermal-epidermal separation by trypsination. The cells are inoculated nutritive layers (irradiated fibroblasts) and cultured in DMEM and HAM F12 at 30% supplemented with fœetal calf serum at 10%, EGF at 10 ng/ml, hydrocortisone at 1.6 ng/ml, umulin at 0.12 UI/ml, choleratoxin at 0.1 nM, triiodothyronine at 0.2 μM, adenine at 24 μg/ml, 4 mM L-Glutamine, penicillin at 100 UI/ml, gentamicin at 100 μg/ml and amphotericin B at 1 μg/ml.
In fact, the number of these cells is reduced by approximately 50% compared to the control when they are cultured in the presence of 600 μg/ml of βAPN. […] The results of the MTT viability test confirm those of the cell count. […] It must be emphasized that βAPN at 200 μg/ml can optionally cause an increase in cell activity (proliferation and viability) on the fibroblasts inoculated at a low density, and on the fibroblasts and the keratinocytes inoculated at a high density.

Data set [5] relates to reconstructed skin (fibroblasts and keratinocytes). Briefly: Histology, immunohistology and in situ hybridization of reconstructed skins. The data set is classed as cell-based, human.
Description: The method allowing the formation of the reconstructed skin is that described in the French Patent 87-08252 of the 15th Jun. 1987.
as §1
A mixture with a base of bovine collagen of type I and III (72%), glycosaminoglycan (8%) cross-linked by chitosan (20%) is poured into 6-well plates. The dermal substrates thus obtained are then frozen at −80° C. and lyophilized. The fibroblasts are inoculated in the dermal substrate, rehydrated and sterilized at a rate of 250,000 cells per cm^2. Keratinocytes are inoculated after 15 days (day 15) at a density of 200,000 to 250,000 cells/cm^2. The reconstructed skins are cultured for 8 days in immersion, in the medium described previously supplemented with 50 μg/ml of vitamin C. […]

Structures are written as SMILES. Values joined by “and” are separate entries in the source; they are usually repeats but may differ in a detail not shown here. Equal entries are not always repeated. Some results are limits rather than exact numbers.

As to `N#CCCN` [βAPN, β-aminopropionitrile], the “dpm + βAPN (Lysyl oxidase activity assay)” value in data set [1] (Experiment 1, substrate no. 1, culture − FCS, + cys, Day 3, caudal chondrocytes, 15% medium P35) is 674 dpm and 718 dpm; in data set [1] (Experiment 2, substrate no. 2, culture + FCS, − cys, Day 7, caudal chondrocytes, 25% medium P35), 5296 dpm and 6210 dpm; in data set [1] (Experiment 2, substrate no. 2, culture + FCS, − cys, Day 7, cranial chondrocytes, 100% medium P35), 5800 dpm and 6536 dpm; in data set [1] (Experiment 2, substrate no. 2, culture + FCS, − cys, Day 13, caudal chondrocytes, 75% medium P35), 4344 dpm and 4702 dpm; in data set [1] (Experiment 2, substrate no. 2, culture + FCS, − cys, Day 13, cranial chondrocytes, 100% medium P35), 4580 dpm and 4618 dpm. The “reversibility of the modifications in the bridgings between chains of collagen IX after elimination of βAPN” value in data set [2] was no more than 6 days. Besides, the “toxicity for the cells” value in data set [3] is “not toxic”. Besides, the “reduction of proliferation of the keratinocytes” value in data set [4] (200 μg/ml) is on record as “approximately 10%”. The “effect on the viability and the multiplication” value in data set [4] (200 μg/ml, isolated cultures) is “little effect”. The “reduction of the number of cells compared to the control” value in data set [4] (600 μg/ml) is recorded as “approximately 50%”. In data set [4] (cell count and MTT), the “concentration with inhibiting effect on proliferation” value is on record as “greater than 500 μg/ml”. Also, in data set [4] (up to 800 μg/ml), the “toxic effect on cells at confluence” value is recorded as “no toxic effect”. Besides, the “histology of the reconstructed skins” value in data set [5] (50 μg/ml or 200 μg/ml) is “does not seem to be fundamentally changed”. Further, the “detection of the LOX and LOXL genes by in situ hybridization” value in data set [5] (50 μg/ml, dermis and epidermis) is recorded as “slight increase”. Moreover, in data set [5] (dermis of reconstructed skin), the “synthesis of extracellular matrix / colonization of the sponge by the fibroblasts” value is “increased synthesis of ECM”.

The record behind these values is US20040248871A1, “Use of lysyl oxidase inhibitors for cell culture and tissue engineering” (priority 2001, published 2004).
